# Laboratory results: PubChem BioAssay AID1259407 (Chemical Carcinogenesis Research Information System (CCRIS), 2018)
# Calls of active or inactive are those of the source. The rule behind the calls is not given here.
# Test system: CCRIS mutagenicity, Ames/micronucleus/aberration tests
# Assay: CCRIS mutagenicity studies
# [1] = Test System: AMES SALMONELLA TYPHIMURIUM, Strain/Indicator: TA98, Metabolic Activation: HAMSTER, LIVER, S-9, AROCLOR 1254 (10%), Method: PREINCUBATION
# [2] = Test System: AMES SALMONELLA TYPHIMURIUM, Strain/Indicator: TA98, Metabolic Activation: NONE, Method: PREINCUBATION
# [3] = Test System: AMES SALMONELLA TYPHIMURIUM, Strain/Indicator: TA98, Metabolic Activation: RAT, LIVER, S-9, AROCLOR 1254 (10%), Method: PREINCUBATION
# [4] = Test System: AMES SALMONELLA TYPHIMURIUM, Strain/Indicator: TA100, Metabolic Activation: HAMSTER, LIVER, S-9, AROCLOR 1254 (10%), Method: PREINCUBATION
# [5] = Test System: AMES SALMONELLA TYPHIMURIUM, Strain/Indicator: TA100, Metabolic Activation: NONE, Method: PREINCUBATION
# [6] = Test System: AMES SALMONELLA TYPHIMURIUM, Strain/Indicator: TA100, Metabolic Activation: RAT, LIVER, S-9, AROCLOR 1254 (10%), Method: PREINCUBATION
# [7] = Test System: AMES SALMONELLA TYPHIMURIUM, Strain/Indicator: TA1535, Metabolic Activation: HAMSTER, LIVER, S-9, AROCLOR 1254 (10%), Method: PREINCUBATION
# [8] = Test System: AMES SALMONELLA TYPHIMURIUM, Strain/Indicator: TA1535, Metabolic Activation: NONE, Method: PREINCUBATION
# [9] = Test System: AMES SALMONELLA TYPHIMURIUM, Strain/Indicator: TA1535, Metabolic Activation: RAT, LIVER, S-9, AROCLOR 1254 (10%), Method: PREINCUBATION
# [10] = Test System: AMES SALMONELLA TYPHIMURIUM, Strain/Indicator: TA1537, Metabolic Activation: NONE, Method: PREINCUBATION
smiles,measurement,setting,value
Cc1cc(O)ccc1Cl,mutagenic call,"Test System: AMES SALMONELLA TYPHIMURIUM, Strain/Indicator: TA97, Metabolic Activation: HAMSTER, LIVER, S-9, AROCLOR 1254 (10%), Method: PREINCUBATION",inactive; negative
same,mutagenic call,"Test System: AMES SALMONELLA TYPHIMURIUM, Strain/Indicator: TA97, Metabolic Activation: HAMSTER, LIVER, S-9, AROCLOR 1254 (30%), Method: PREINCUBATION",inactive; negative
same,mutagenic call,"Test System: AMES SALMONELLA TYPHIMURIUM, Strain/Indicator: TA97, Metabolic Activation: NONE, Method: PREINCUBATION",inactive; negative
same,mutagenic call,"Test System: AMES SALMONELLA TYPHIMURIUM, Strain/Indicator: TA97, Metabolic Activation: NONE, Method: STANDARD PLATE",inactive; negative
same,mutagenic call,"Test System: AMES SALMONELLA TYPHIMURIUM, Strain/Indicator: TA97, Metabolic Activation: RAT, LIVER, S-9, AROCLOR 1254 (10%), Method: PREINCUBATION",inactive; negative
same,mutagenic call,"Test System: AMES SALMONELLA TYPHIMURIUM, Strain/Indicator: TA97, Metabolic Activation: RAT, LIVER, S-9, AROCLOR 1254 (30%), Method: PREINCUBATION",inactive; negative
same,mutagenic call,"Test System: AMES SALMONELLA TYPHIMURIUM, Strain/Indicator: TA97, Metabolic Activation: RAT, LIVER, S-9, AROCLOR 1254, Method: STANDARD PLATE",active; positive
same,mutagenic call,[1],inactive; negative
same,mutagenic call,"Test System: AMES SALMONELLA TYPHIMURIUM, Strain/Indicator: TA98, Metabolic Activation: HAMSTER, LIVER, S-9, AROCLOR 1254 (30%), Method: PREINCUBATION",inactive; negative
same,mutagenic call,[2],inactive; negative
same,mutagenic call,"Test System: AMES SALMONELLA TYPHIMURIUM, Strain/Indicator: TA98, Metabolic Activation: NONE, Method: STANDARD PLATE",inactive; negative
same,mutagenic call,[3],inactive; negative
same,mutagenic call,"Test System: AMES SALMONELLA TYPHIMURIUM, Strain/Indicator: TA98, Metabolic Activation: RAT, LIVER, S-9, AROCLOR 1254 (30%), Method: PREINCUBATION",inactive; negative
same,mutagenic call,"Test System: AMES SALMONELLA TYPHIMURIUM, Strain/Indicator: TA98, Metabolic Activation: RAT, LIVER, S-9, AROCLOR 1254, Method: STANDARD PLATE",inactive; negative
same,mutagenic call,[4],inactive; negative
same,mutagenic call,"Test System: AMES SALMONELLA TYPHIMURIUM, Strain/Indicator: TA100, Metabolic Activation: HAMSTER, LIVER, S-9, AROCLOR 1254 (30%), Method: PREINCUBATION",inactive; negative
same,mutagenic call,[5],inactive; negative
same,mutagenic call,"Test System: AMES SALMONELLA TYPHIMURIUM, Strain/Indicator: TA100, Metabolic Activation: NONE, Method: STANDARD PLATE",inactive; negative
same,mutagenic call,[6],inactive; negative
same,mutagenic call,"Test System: AMES SALMONELLA TYPHIMURIUM, Strain/Indicator: TA100, Metabolic Activation: RAT, LIVER, S-9, AROCLOR 1254 (30%), Method: PREINCUBATION",inactive; negative
same,mutagenic call,"Test System: AMES SALMONELLA TYPHIMURIUM, Strain/Indicator: TA100, Metabolic Activation: RAT, LIVER, S-9, AROCLOR 1254, Method: STANDARD PLATE",inactive; negative
same,mutagenic call,"Test System: AMES SALMONELLA TYPHIMURIUM, Strain/Indicator: TA104, Metabolic Activation: NONE, Method: STANDARD PLATE",inactive; negative
same,mutagenic call,"Test System: AMES SALMONELLA TYPHIMURIUM, Strain/Indicator: TA104, Metabolic Activation: RAT, LIVER, S-9, AROCLOR 1254, Method: STANDARD PLATE",inactive; negative
same,mutagenic call,[7],inactive; negative
same,mutagenic call,"Test System: AMES SALMONELLA TYPHIMURIUM, Strain/Indicator: TA1535, Metabolic Activation: HAMSTER, LIVER, S-9, AROCLOR 1254 (30%), Method: PREINCUBATION",inactive; negative
same,mutagenic call,[8],inactive; negative
same,mutagenic call,"Test System: AMES SALMONELLA TYPHIMURIUM, Strain/Indicator: TA1535, Metabolic Activation: NONE, Method: STANDARD PLATE",inactive; negative
same,mutagenic call,[9],inactive; negative
same,mutagenic call,"Test System: AMES SALMONELLA TYPHIMURIUM, Strain/Indicator: TA1535, Metabolic Activation: RAT, LIVER, S-9, AROCLOR 1254 (30%), Method: PREINCUBATION",inactive; negative
same,mutagenic call,"Test System: AMES SALMONELLA TYPHIMURIUM, Strain/Indicator: TA1535, Metabolic Activation: RAT, LIVER, S-9, AROCLOR 1254, Method: STANDARD PLATE",inactive; negative
same,mutagenic call,"Test System: AMES SALMONELLA TYPHIMURIUM, Strain/Indicator: TA1537, Metabolic Activation: HAMSTER, LIVER, S-9, AROCLOR 1254 (30%), Method: PREINCUBATION",inactive; negative
same,mutagenic call,[10],inactive; negative
same,mutagenic call,"Test System: AMES SALMONELLA TYPHIMURIUM, Strain/Indicator: TA1537, Metabolic Activation: NONE, Method: STANDARD PLATE",inactive; negative
same,mutagenic call,"Test System: AMES SALMONELLA TYPHIMURIUM, Strain/Indicator: TA1537, Metabolic Activation: RAT, LIVER, S-9, AROCLOR 1254 (30%), Method: PREINCUBATION",inactive; negative
same,mutagenic call,"Test System: AMES SALMONELLA TYPHIMURIUM, Strain/Indicator: TA1537, Metabolic Activation: RAT, LIVER, S-9, AROCLOR 1254, Method: STANDARD PLATE",inactive; negative
C[N+](=O)[O-],mutagenic call,[1],inactive; negative
same,mutagenic call,"Test System: AMES SALMONELLA TYPHIMURIUM, Strain/Indicator: TA98, Metabolic Activation: HAMSTER, LIVER, S-9, AROCLOR 1254, FLAVIN MONONUCLEOTIDE, Method: PREINCUBATION",inactive; negative
same,mutagenic call,[2],inactive; negative
same,mutagenic call,[3],inactive; negative
same,mutagenic call,"Test System: AMES SALMONELLA TYPHIMURIUM, Strain/Indicator: TA98, Metabolic Activation: RAT, LIVER, S-9, KANECHLOR 500, Method: PREINCUBATION",inactive; negative
same,mutagenic call,[4],inactive; negative
same,mutagenic call,"Test System: AMES SALMONELLA TYPHIMURIUM, Strain/Indicator: TA100, Metabolic Activation: HAMSTER, LIVER, S-9, AROCLOR 1254, FLAVIN MONONUCLEOTIDE, Method: PREINCUBATION",inactive; negative
same,mutagenic call,[5],inactive; negative
same,mutagenic call,[6],inactive; negative
same,mutagenic call,"Test System: AMES SALMONELLA TYPHIMURIUM, Strain/Indicator: TA100, Metabolic Activation: RAT, LIVER, S-9, KANECHLOR 500, Method: PREINCUBATION",inactive; negative
same,mutagenic call,[7],inactive; negative
same,mutagenic call,[8],inactive; negative
same,mutagenic call,[9],inactive; negative
same,mutagenic call,"Test System: AMES SALMONELLA TYPHIMURIUM, Strain/Indicator: TA1537, Metabolic Activation: HAMSTER, LIVER, S-9, AROCLOR 1254 (10%), Method: PREINCUBATION",inactive; negative
same,mutagenic call,[10],inactive; negative
same,mutagenic call,"Test System: AMES SALMONELLA TYPHIMURIUM, Strain/Indicator: TA1537, Metabolic Activation: RAT, LIVER, S-9, AROCLOR 1254 (10%), Method: PREINCUBATION",inactive; negative
same,mutagenic call,"Test System: E. COLI, Strain/Indicator: WP2 UVRA (PKM101), Metabolic Activation: NONE, Method: PREINCUBATION",inactive; negative
same,mutagenic call,"Test System: E. COLI, Strain/Indicator: WP2 UVRA (PKM101), Metabolic Activation: RAT, LIVER, S-9, KANECHLOR 500, Method: PREINCUBATION",inactive; negative
same,mutagenic call,"Test System: MOUSE LYMPHOMA, Strain/Indicator: L5178Y (TK+/TK-), Metabolic Activation: NONE, Method: SUSPENSION/PLATE",active; positive. reevaluation of results: equivocal
same,mutagenic call,"Test System: Mouse lymphoma, Strain/Indicator: L5178Y (tk+/tk-), Metabolic Activation: Rat, Liver, S-9, Aroclor 1254, Method: Suspension/plate",inactive; negative
